Assay results: patent EP1561465A2, “Methods of use of fluoroquinolone compounds against bacteria” (LG Life Sciences, Ltd., priority 1999, dated 2001)
≈ marks a conversion by molar mass, not a printed value. Like-named read-outs stand apart in the source and are kept apart here.

Columns and labels:
Salmonella spp. = assay: MIC by agar dilution (NCCLS M7-A4), 288 enteropathogenic isolates, gemifloxacin and 15 other antimicrobials; type: cell-based
Enterobacter spp. = assay: MIC by agar dilution (NCCLS), 322 nosocomial Gram negative isolates, Athens 1998; type: cell-based; conditions: Enterobacter, n = 57 isolates
[1] = test system: Mycobacterium tuberculosis (MTB); assay: MIC by proportions method (NCCLS M24-T, 1995), 82 MTB strains; type: cell-based; conditions: Mycobacterium tuberculosis; 82 MTB strains
Shigella spp. [2] = assay: MIC by agar dilution (NCCLS M7-A4), 288 enteropathogenic isolates, eight quinolones; type: cell-based; conditions: Shigella spp. (n = 21)
Enterococcus faecium = assay: MIC by agar macrodilution (NCCLS), 373 Gram positive isolates, Athens 1998; type: cell-based
Campylobacter jejuni = assay: MIC by agar dilution (NCCLS M7-A4), 288 enteropathogenic isolates, gemifloxacin and 15 other antimicrobials; conditions: for MIC: Campylobacter jejuni
Enterococcus faecalis [3] = assay: MIC by agar macrodilution (NCCLS), 373 Gram positive isolates, Athens 1998; type: cell-based
Escherichia coli [4] = assay: MIC by agar dilution (NCCLS), 322 nosocomial Gram negative isolates, Athens 1998; type: cell-based; conditions: Escherichia coli; n = 57 isolates
Streptococcus pneumoniae = assay: MIC by NCCLS broth microdilution, 1100 Japanese clinical isolates 1997-1998; type: cell-based; conditions: for MIC50 / MIC90 / MIC: Streptococcus pneumoniae; for MIC50: read-out: MIC50; for MIC90: read-out: MIC90; for MIC: Streptococcus pneumoniae quinolone resistant
Staphylococcus aureus = assay: as above; type: cell-based; conditions: for MIC: Staphylococcus aureus quinolone resistant
Enterococcus faecalis [5] = assay: as above; type: cell-based; conditions: for MIC50 / MIC90: Enterococcus faecalis; for MIC90: read-out: MIC90
P. aeruginosa = assay: MIC by two-fold serial agar dilution, quinolone-resistant strains; type: cell-based; conditions: Pseudomonas aeruginosa
Shigella spp. [6] = assay: MIC by NCCLS broth microdilution, 1100 Japanese clinical isolates 1997-1998; type: cell-based; conditions: Shigella spp. (n=34)
Morganella morganii = assay: as above; type: cell-based; conditions: Morganella morganii (n=40)
Escherichia coli [7] = assay: as above; type: cell-based; conditions: for MIC50 / MIC90: Escherichia coli
[8] = Streptococcus pneumoniae amoxicillin resistant (n=40)
[9] = Streptococcus pneumoniae amoxicillin susceptible (n=35)
[10] = Streptococcus pneumoniae erythromycin resistant (n=34)
[11] = Streptococcus pneumoniae erythromycin susceptible (n=11)
[12] = Staphylococcus aureus oxacillin susceptible (n=41)
[13] = Staphylococcus aureus, Staphylococcus aureus oxacillin resistant (n=57)
[14] = Enterococcus faecalis ciprofloxacin susceptible (n=24)
[15] = Enterococcus faecalis ciprofloxacin resistant (n=15)
[16] = Escherichia coli ciprofloxacin susceptible (n=37)

## Cc1c(F)c(N2CCNC(C)C2)cc2c1c(=O)c(C(=O)O)cn2C1CC1 (stereo not drawn) [Grepafloxacin, grepafloxacin]
Salmonella spp.; S. hadar(2), isolates with MICs for ciprofloxacin ≥[…], read-out: MIC
  MIC: 1 mg/L (≈ 2.78 µM)
Salmonella spp.; S. newport(1), isolate with MIC for ciprofloxacin ≥[…], read-out: MIC
  MIC: 1 mg/L (≈ 2.78 µM)
Salmonella spp.; S. virchow(2), isolates with MICs for ciprofloxacin ≥[…], read-out: MIC
  MIC: 0.25 mg/L (≈ 0.696 µM)
Salmonella spp.; Salmonella spp.
  Rates of non-susceptible microorganisms: 1%
Salmonella spp.; Salmonella spp. N= 106
  MIC (mg/L) Range: 0.03 to 2 mg/L
Salmonella spp.; Salmonella, S. tshiongwe(1), isolate with MIC for ciprofloxacin ≥[…], read-out: MIC
  MIC: 2 mg/L (≈ 5.56 µM)
Salmonella spp.; Salmonella, read-out: MIC (mg/L) 50%, Salmonella spp. N= 106
  MIC: 0.06 mg/L (≈ 0.167 µM)
Salmonella spp.; Salmonella, read-out: MIC (mg/L) 90%, Salmonella spp. N= 106
  MIC: 0.25 mg/L (≈ 0.696 µM)
Salmonella spp.; Salmonella, the non-susceptible Salmonella spp. isolate(s) (1% of 106), read-out: MIC
  MIC: 2 mg/L (≈ 5.56 µM)
Enterobacter spp.; read-out: MIC50
  MIC50: 0.06 µg/mL (≈ 0.167 µM)
Enterobacter spp.; read-out: MIC90
  MIC90: > 64 µg/mL
[1]
  MIC90: 2 µg/mL (≈ 5.56 µM)
Shigella spp. [2]
  % Susceptible: 100%
  MIC50: ≤ 0.015 µg/mL
  MIC90: 0.03 µg/mL (≈ 0.0835 µM)
  MIC Range: ≤0.015 to 0.03 µg/mL
Enterococcus faecium
  MIC distribution (µg/ml) 0.03: 0
  MIC distribution (µg/ml) 0.06: 0
  MIC distribution (µg/ml) 0.125: 0
  MIC distribution (µg/ml) 0.25: 2
  MIC distribution (µg/ml) 0.5: 4
  MIC distribution (µg/ml) 1: 3
  MIC distribution (µg/ml) 2: 0
  MIC distribution (µg/ml) 4: 0
  MIC distribution (µg/ml) 8: 1
  MIC distribution (µg/ml) 16: 1
  MIC distribution (µg/ml) ≤0.015: 0
  MIC distribution (µg/ml) ≥32: 3
Enterococcus faecium; Enterococcus faecium, n = 14 isolates, read-out: MIC50
  MIC50: 2 µg/mL (≈ 5.56 µM)
Enterococcus faecium; Enterococcus faecium, n = 14 isolates, read-out: MIC90
  MIC90: ≥ 32 µg/mL
Campylobacter jejuni; Campylobacter jejuni N= 91
  MIC (mg/L) Range: 0.03 to 128 mg/L
Campylobacter jejuni; read-out: MIC (mg/L) 50%
  MIC: 32 mg/L (≈ 89 µM)
Campylobacter jejuni; read-out: MIC (mg/L) 90%
  MIC: 64 mg/L (≈ 178 µM)
Enterococcus faecalis [3]
  MIC distribution (µg/ml) 0.03: 0
  MIC distribution (µg/ml) 0.06: 0
  MIC distribution (µg/ml) 0.125: 0
  MIC distribution (µg/ml) 0.25: 2
  MIC distribution (µg/ml) 1: 22
  MIC distribution (µg/ml) 2: 21
  MIC distribution (µg/ml) 4: 6
  MIC distribution (µg/ml) 8: 4
  MIC distribution (µg/ml) 16: 2
  MIC distribution (µg/ml) ≤0.015: 0
  MIC distribution (µg/ml) ≥32: 19
Enterococcus faecalis [3]; Enterococcus faecalis, n = 81 isolates, read-out: MIC50
  MIC50: 2 µg/mL (≈ 5.56 µM)
Enterococcus faecalis [3]; Enterococcus faecalis, n = 81 isolates, read-out: MIC90
  MIC90: ≥ 32 µg/mL
Enterococcus faecalis [3]; number of isolates at MIC 0.5 µg/ml, n = 81
  MIC distribution (µg/ml) 0.5: 5
Escherichia coli [4]
  MIC50: 0.06 µg/mL (≈ 0.167 µM)
  MIC90: 0.25 µg/mL (≈ 0.696 µM)

## NC1CCN(c2nc3c(cc2F)c(=O)c(C(=O)O)cn3-c2ccc(F)cc2F)C1 (stereo not drawn) [Tosufloxacin, tosufloxacin]
Streptococcus pneumoniae; [8]
  MIC Range: 0.063 to 4 µg/mL
  MIC50: 0.25 µg/mL (≈ 0.618 µM)
  MIC90: 0.25 µg/mL (≈ 0.618 µM)
Streptococcus pneumoniae; [9]
  MIC Range: 0.125 to 2 µg/mL
  MIC50: 0.25 µg/mL (≈ 0.618 µM)
  MIC90: 0.5 µg/mL (≈ 1.24 µM)
Streptococcus pneumoniae; [10]
  MIC Range: 0.063 to 4 µg/mL
  MIC50: 0.25 µg/mL (≈ 0.618 µM)
  MIC90: 0.25 µg/mL (≈ 0.618 µM)
Streptococcus pneumoniae; [11]
  MIC Range: 0.125 to 0.25 µg/mL
  MIC50: 0.25 µg/mL (≈ 0.618 µM)
  MIC90: 0.25 µg/mL (≈ 0.618 µM)
Streptococcus pneumoniae; strain TMS1
  MIC: 0.5 µg/mL (≈ 1.24 µM)
Streptococcus pneumoniae; strain TMS2
  MIC: 8 µg/mL (≈ 19.8 µM)
Staphylococcus aureus; [12]
  MIC90: 0.125 µg/mL (≈ 0.309 µM)
  MIC Range: 0.016 to 1 µg/mL
Staphylococcus aureus; [13]
  MIC50: 4 µg/mL (≈ 9.89 µM)
  MIC90: > 16 µg/mL
Staphylococcus aureus; Staphylococcus aureus, Staphylococcus aureus oxacillin susceptible (n=41)
  MIC50: 0.063 µg/mL (≈ 0.156 µM)
Staphylococcus aureus; Staphylococcus aureus, strain TMS1* (spontaneous mutant resistant to ciprofloxacin)
  MIC: 0.25 µg/mL (≈ 0.618 µM)
Staphylococcus aureus; Staphylococcus aureus, strain TMS3, read-out: MIC
  MIC: > 16 µg/mL
Staphylococcus aureus; Staphylococcus aureus, strain TMS4, read-out: MIC
  MIC: 4 µg/mL (≈ 9.89 µM)
Staphylococcus aureus; Staphylococcus aureus, strain TMS5, read-out: MIC
  MIC: 4 µg/mL (≈ 9.89 µM)
Staphylococcus aureus; Staphylococcus aureus, strain TMS6, read-out: MIC
  MIC: 2 µg/mL (≈ 4.95 µM)
Enterococcus faecalis [5]; [14]
  MIC Range: 0.5 - 0.5 µg/ml
  MIC50: 0.5 µg/mL (≈ 1.24 µM)
  MIC90: 0.5 µg/mL (≈ 1.24 µM)
Enterococcus faecalis [5]; [15]
  MIC50: 32 µg/mL (≈ 79.1 µM)
  MIC90: 32 µg/mL (≈ 79.1 µM)
P. aeruginosa
  MIC: 1 µg/mL (≈ 2.47 µM)
Shigella spp. [6]
  MIC50: 0.016 µg/mL (≈ 0.0396 µM)
  MIC90: 0.016 µg/mL (≈ 0.0396 µM)
  MIC Range: ≤0.008 to 0.032 µg/mL
Morganella morganii
  MIC Range: 0.032 to 16 µg/mL
Morganella morganii; read-out: MIC50
  MIC50: 0.063 µg/mL (≈ 0.156 µM)
Morganella morganii; read-out: MIC90
  MIC90: 0.25 µg/mL (≈ 0.618 µM)
Escherichia coli [7]; [16]
  MIC Range: ≤0.008 to 0.25 µg/mL
  MIC50: 0.032 µg/mL (≈ 0.0791 µM)
  MIC90: 0.032 µg/mL (≈ 0.0791 µM)
Escherichia coli [7]; Escherichia coli ciprofloxacin resistant (n=5)
  MIC50: 32 µg/mL (≈ 79.1 µM)
Escherichia coli [7]; Escherichia coli ciprofloxacin resistant (n=5), values marked *: MIC80 value
  MIC90: 32 µg/mL (≈ 79.1 µM)
